Measured values: patent US20210330616A1, “AMELIORATING AGENT FOR OBESITY-RELATED METABOLIC DISEASE” (METABOLIC AND OBESE RESEARCH SCIENCE CORPORATION, priority 2018, published 2021)
Values joined by “and” are separate entries in the source; they are usually repeats but may differ in a detail not shown here. Identical values can stand only once. Counter-ions that a name gives are not always drawn. Like-named read-outs stand apart in the source and are kept apart here.

What was measured:
[1] = parameters: key to Body weight / Insulin resistance / Hyperglycemia / Hypertension / Blood LDLc / Blood HDLc / Fatty liver: ↓: lowering or mitigating action; ↑: increasing action; →: no change; settings: cited from earlier work
[2] = molecular target: T1, Helz2 (Homo sapiens, UniProt Q9BYK8); test: High-throughput screening through surface plasmon resonance for low-molecular-weight compounds that bind to Helz2; assay type: binding; settings: purified Helz2 protein
T1 construct: 3xFLAG (N); made in house; host or cells: HEK293 cells
T1 sequence (Q9BYK8 whole entry): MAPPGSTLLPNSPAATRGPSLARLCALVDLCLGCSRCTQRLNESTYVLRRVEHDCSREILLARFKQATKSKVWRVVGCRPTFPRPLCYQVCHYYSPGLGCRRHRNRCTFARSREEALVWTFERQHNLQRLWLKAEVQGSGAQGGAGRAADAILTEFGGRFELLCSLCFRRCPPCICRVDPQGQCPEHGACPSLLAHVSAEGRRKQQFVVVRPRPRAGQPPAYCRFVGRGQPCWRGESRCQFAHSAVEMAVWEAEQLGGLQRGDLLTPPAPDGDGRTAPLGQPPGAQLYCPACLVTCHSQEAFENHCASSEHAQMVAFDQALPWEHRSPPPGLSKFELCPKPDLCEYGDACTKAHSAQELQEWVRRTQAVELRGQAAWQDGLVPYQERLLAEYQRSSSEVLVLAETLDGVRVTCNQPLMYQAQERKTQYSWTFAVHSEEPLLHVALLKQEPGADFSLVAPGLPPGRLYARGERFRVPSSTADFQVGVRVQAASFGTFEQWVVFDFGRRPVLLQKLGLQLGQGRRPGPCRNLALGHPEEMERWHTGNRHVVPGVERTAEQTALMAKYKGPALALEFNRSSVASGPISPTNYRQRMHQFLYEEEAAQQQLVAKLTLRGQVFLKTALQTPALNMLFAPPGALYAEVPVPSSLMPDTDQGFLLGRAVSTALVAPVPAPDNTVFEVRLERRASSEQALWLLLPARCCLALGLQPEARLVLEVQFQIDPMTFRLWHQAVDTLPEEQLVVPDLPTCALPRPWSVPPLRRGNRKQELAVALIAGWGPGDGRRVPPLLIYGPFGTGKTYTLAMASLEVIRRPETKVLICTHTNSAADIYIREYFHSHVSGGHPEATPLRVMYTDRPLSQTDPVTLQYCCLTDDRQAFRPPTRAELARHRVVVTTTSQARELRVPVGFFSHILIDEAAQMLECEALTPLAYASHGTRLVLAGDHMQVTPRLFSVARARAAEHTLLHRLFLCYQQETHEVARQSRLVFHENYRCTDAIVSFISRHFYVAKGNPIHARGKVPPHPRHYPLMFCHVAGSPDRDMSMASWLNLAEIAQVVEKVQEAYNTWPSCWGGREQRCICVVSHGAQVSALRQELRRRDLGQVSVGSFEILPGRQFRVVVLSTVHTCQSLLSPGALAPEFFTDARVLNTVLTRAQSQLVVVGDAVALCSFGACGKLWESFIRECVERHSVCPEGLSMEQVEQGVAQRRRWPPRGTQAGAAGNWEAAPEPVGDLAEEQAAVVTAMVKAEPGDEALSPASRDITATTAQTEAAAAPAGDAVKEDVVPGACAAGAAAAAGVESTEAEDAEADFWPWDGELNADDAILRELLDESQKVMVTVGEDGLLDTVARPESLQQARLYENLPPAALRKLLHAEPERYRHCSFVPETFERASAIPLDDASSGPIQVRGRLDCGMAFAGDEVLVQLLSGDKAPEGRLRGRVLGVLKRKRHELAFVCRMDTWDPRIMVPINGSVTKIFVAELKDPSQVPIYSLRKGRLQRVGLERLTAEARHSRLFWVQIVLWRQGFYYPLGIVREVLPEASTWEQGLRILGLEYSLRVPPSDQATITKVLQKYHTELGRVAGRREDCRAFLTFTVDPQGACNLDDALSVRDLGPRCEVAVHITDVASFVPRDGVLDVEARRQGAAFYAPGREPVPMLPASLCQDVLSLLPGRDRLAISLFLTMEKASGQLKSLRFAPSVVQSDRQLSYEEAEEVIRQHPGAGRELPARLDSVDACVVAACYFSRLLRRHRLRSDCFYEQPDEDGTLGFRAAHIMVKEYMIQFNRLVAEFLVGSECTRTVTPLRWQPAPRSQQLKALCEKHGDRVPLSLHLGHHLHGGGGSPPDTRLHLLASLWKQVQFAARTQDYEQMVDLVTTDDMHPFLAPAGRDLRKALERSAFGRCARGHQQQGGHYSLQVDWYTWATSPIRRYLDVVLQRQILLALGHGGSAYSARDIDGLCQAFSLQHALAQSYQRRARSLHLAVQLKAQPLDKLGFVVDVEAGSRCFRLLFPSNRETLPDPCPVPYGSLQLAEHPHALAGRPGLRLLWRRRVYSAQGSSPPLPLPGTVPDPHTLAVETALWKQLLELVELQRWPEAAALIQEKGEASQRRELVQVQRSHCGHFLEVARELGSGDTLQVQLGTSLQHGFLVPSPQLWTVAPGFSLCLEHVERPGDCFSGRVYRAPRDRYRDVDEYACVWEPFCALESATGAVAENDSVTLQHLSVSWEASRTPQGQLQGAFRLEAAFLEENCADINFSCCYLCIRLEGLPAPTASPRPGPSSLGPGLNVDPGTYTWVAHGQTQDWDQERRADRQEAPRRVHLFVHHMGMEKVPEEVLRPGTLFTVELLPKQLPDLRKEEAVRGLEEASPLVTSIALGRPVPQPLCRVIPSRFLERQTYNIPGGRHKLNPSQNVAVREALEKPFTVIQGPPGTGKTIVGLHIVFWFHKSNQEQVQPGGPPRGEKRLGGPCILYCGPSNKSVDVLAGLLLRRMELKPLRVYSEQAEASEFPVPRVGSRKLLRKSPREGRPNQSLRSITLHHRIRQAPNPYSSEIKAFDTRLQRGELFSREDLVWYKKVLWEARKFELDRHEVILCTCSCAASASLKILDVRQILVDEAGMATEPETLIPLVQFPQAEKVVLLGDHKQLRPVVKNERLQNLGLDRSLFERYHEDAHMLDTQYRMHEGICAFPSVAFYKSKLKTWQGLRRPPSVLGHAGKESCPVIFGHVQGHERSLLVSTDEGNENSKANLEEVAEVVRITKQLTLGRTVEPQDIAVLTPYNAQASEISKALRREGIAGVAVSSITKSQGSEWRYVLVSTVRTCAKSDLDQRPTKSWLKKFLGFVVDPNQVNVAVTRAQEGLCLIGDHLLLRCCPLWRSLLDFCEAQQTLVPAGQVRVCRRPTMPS
Source text: 1. High-Throughput Screening for Low-Molecular-Weight Compounds that Bind to Helz2
HEK293 cells were allowed to express Helz2 by using a Helz2 expression vector (p3×FLAG-CMV10-pDIP2), and Helz2 protein was purified.

[3] = test system: Leprb gene expression in HepG2 cells; test: Leprb gene expression in cultured hepatocyte HepG2 (qRT-PCR); assay type: cell-based; settings: HepG2, 10^−9 to 10^−7M, 24 to 48 hours
Experimental: Identification of Low-Molecular-Weight Compound that Promotes Leprb Expression in Cultured Hepatocytes
Because Leprb gene expression is promoted on lowering of the action of Helz2 through binding of a low-molecular-weight compound, the low-molecular-weight compounds that bound to Helz2 were screened with use of increase of Leprb gene expression in cultured hepatocyte as an index. […] The hepatocytes were cultured at 37° C. for 24 to 48 hours, and Leprb gene expression therein was measured through a quantitative real time polymerase chain reaction (qRT-PCR, TaqMan Gene expression assays using LEPRB probes) method.

[4] = test system: Hepatic Leprb expression; test: Hepatic Leprb expression with oral administration to obese mice; assay type: in vivo, mice (C57BL6J); settings: 0.32 mg/kg/day oral, 14 days, vs physiological saline
Experimental: 3. Hepatic Leprb Expression with Oral Administration of Low-Molecular-Weight Compound
(§1) Six-week-old male mice (C57BL6J) were grown with high-fat diet (fat content: 60 kcal %, Research diets, Inc.) or low-fat diet (fat content: 10.5 kcal %, CLEA Japan, Inc.) for 18 weeks. Thereafter, obese mice fed high-fat diet were separated into two groups, and 0.3 mL of physiological saline was orally administered to one group through a gastric tube for mouse, and 0.3 mL of a solution of a low-molecular-weight compound dissolved in physiological saline was orally administered to the other group through the gastric tube for mouse. Oral administration was performed every day over 14 days during 30 minutes before turning lights off at 18:00 (turning lights on at 6:00, 12-hour light-dark cycle, room temperature: 22° C.). […] Thereafter, the organs were stored at −80° C. Hepatic Leprb expression was measured by means of the qRT-PCR.

[5] = test system: obese mice fed high-fat diet; test: Daily variation of body weight with oral administration to obese mice; assay type: in vivo, mice (C57BL6J); parameters: key to Body weight: ↓: lowering or mitigating action; ↑: increasing action; →: no change
Experimental: as §1
4. Daily Variation of Body Weight with Oral Administration of Low-Molecular-Weight Compound
The body weight of each mouse with administration of physiological saline or administration of a low-molecular-weight compound was measured every day before each administration at 18:00.

[6] = test system: obese mice fed high-fat diet; test: Blood leptin concentration and food intake after oral administration to obese mice; assay type: in vivo, mice (C57BL6J)
Experimental: as §1
5. Change in Blood Leptin Concentration and Food Intake after Oral Administration of Low-Molecular-Weight Compound
Blood leptin concentration after administration of physiological saline or administration of a low-molecular-weight compound were measured by using a mouse leptin ELISA kit (Morinaga Institute of Biological Science, Inc.). The daily food intake of each mouse was measured every day before each administration at 18:00.

[7] = test system: obese mice fed high-fat diet; test: Insulin resistance and blood glucose level after oral administration to obese mice; assay type: in vivo, mice (C57BL6J); parameters: key to Insulin resistance / Hyperglycemia: ↓: lowering or mitigating action; ↑: increasing action; →: no change
Experimental: as §1
6. Change in Insulin Resistance and Blood Glucose Level after Oral Administration of Low-Molecular-Weight Compound
Fasting blood glucose and blood insulin concentration after administration of physiological saline or administration of a low-molecular-weight compound were measured respectively by using an enzyme-electrode method with glucose oxidase and a mouse insulin ELISA kit (Morinaga Institute of Biological Science, Inc.). The insulin resistance of each mouse was represented as Homeostatic model assessment of insulin resistance (HOMA-IR) [insulin (mU/L)×blood glucose (mM)÷22.5] index (×100) (Brit J Nutr 101: 701-708, 2009).

[8] = test system: obese mice fed high-fat diet; test: Pancreatic weight and pancreatic β-cell function after oral administration to obese mice; assay type: in vivo, mice (C57BL6J); settings: 14-day oral administration, vs physiological saline
Experimental: as §1
7. Change in Pancreatic Weight and Pancreatic β-Cell Function after Oral Administration of Low-Molecular-Weight Compound
Pancreatic weight after administration of physiological saline or administration of a low-molecular-weight compound was measured. The pancreatic β-cell function of each mouse was represented by Homeostatic model assessment-β cell function (HOMA-β) {[insulin (mU/L)×20]÷[blood glucose (mM)−3.5]} index (×100) (Brit J Nutr 101:701-708, 2009).

[9] = test system: obese mice fed high-fat diet; test: Hepatic lipid content after oral administration to obese mice (LipoSEARCH, BODIPY staining); assay type: in vivo, mice (C57BL6J); parameters: key to Fatty liver: ↓: lowering or mitigating action; ↑: increasing action; →: no change
Experimental: as §1
8. Change in Hepatic Lipid Content after Oral Administration of Low-Molecular-Weight Compound
Hepatic Tg and Chol contents after administration of physiological saline or administration of a low-molecular-weight compound were measured by using a LipoSEARCH method (Skylight Biotech, Inc.).
To visualize and quantify the amount of fat accumulated in hepatocyte per cell and change in shape of fat, fat globule fluorescent staining with BODIPY (excitation light: 493 nm; fluorescence: 503 nm) was performed. Staining-positive area and size of staining-positive cell were measured in 10 views per mouse hepatocyte in each group. ANOVA was used for intergroup significance test in FIGS. 8-D and 8-E (****. P<0.001).

[10] = test system: obese mice fed high-fat diet; test: Weights of liver and heart after oral administration to obese mice; assay type: in vivo, mice (C57BL6J); settings: 14-day oral administration, vs physiological saline
Experimental: as §1
9. Change in Weights of Liver and Heart after Oral Administration of Low-Molecular-Weight Compound
The weights of the liver and heart after administration of physiological saline or administration of a low-molecular-weight compound were measured.

[11] = test system: obese mice fed high-fat diet; test: Blood lipid concentration after oral administration to obese mice; assay type: in vivo, mice (C57BL6J); parameters: key to Blood LDLc / Blood HDLc: ↓: lowering or mitigating action; ↑: increasing action; →: no change
Experimental: as §1
10. Change in Blood Lipid Concentration after Oral Administration of Low-Molecular-Weight Compound
Fasting blood CM-Tg, VLDL-Tg, LDLc, and HDLc concentrations after administration of physiological saline or administration of a low-molecular-weight compound were measured by using the LipoSEARCH method.

[12] = test system: obese mice fed high-fat diet; test: Weights of spleen and kidney after oral administration to obese mice; assay type: in vivo, mice (C57BL6J); settings: 14-day oral administration, vs physiological saline
Experimental: as §1
11. Change in Weights of Spleen and Kidney after Oral Administration of Low-Molecular-Weight Compound
The weights of the spleen and kidney after administration of physiological saline or administration of a low-molecular-weight compound were measured.

[13] = test system: obese mice fed high-fat diet; test: Weights of fat and muscle after oral administration to obese mice; assay type: in vivo, mice (C57BL6J); settings: 14-day oral administration
Experimental: as §1
12. Change in Weights of Fat and Muscle after Oral Administration of Low-Molecular-Weight Compound
The amounts of visceral fat, which evokes metabolic disorder, and muscle (right side) after administration of physiological saline or administration of a low-molecular-weight compound were measured.

[14] = molecular target: α2-adrenaline receptor; settings: cited from earlier work
[15] = in vivo; cited from earlier work
[16] = surface plasmon resonance, read-out: KD value for binding to and dissociating from Helz2
[17] = obese mice, 14-day oral administration, vs physiological saline
[18] = obese mice, 14-day oral administration, fasting, vs physiological saline
[19] = obese mice, fatty liver caused by high-fat diet
[20] = Table 1, summary of obese mouse results
[21] = KD value for binding to and dissociating from Helz2, surface plasmon resonance

SMILES: CN(C)C(=N)N=C(N)N [Metformin]
- Blood HDLc ([1]; Table 1, comparator drugs): →
- Blood LDLc ([1]; Table 1, comparator drugs): →
- Body weight ([1]; Table 1, comparator drugs): →
- Fatty liver ([1]; Table 1, comparator drugs): →
- Hyperglycemia ([1]; Table 1, comparator drugs): ↓
- Hypertension ([1]; Table 1, comparator drugs): →
- Insulin resistance ([1]; Table 1, comparator drugs): ↓
- action on insulin resistance ([1]; comparison, comparator drugs): ameliorate insulin resistance
- anti-fatty liver action ([1]; comparison, comparator drugs): does not exhibit anti-fatty liver action
- anti-obesity action ([1]; comparison, comparator drugs): does not exhibit anti-obesity action
- hyperglycemia-mitigating action ([1]; comparison, comparator drugs): exhibits hyperglycemia-mitigating action

SMILES: NCCCNCCSP(=O)(O)O [amifostine trihydrate]
- Kd [2, 16]: 1 to 490 nM

SMILES: CN(C)CCC(c1ccc(Br)cc1)c1ccccn1 (centres unmarked) [brompheniramine maleate]
- Kd [2, 16]: 1 to 490 nM

SMILES: Clc1cccc(Cl)c1N=C1NCCN1 [clonidine hydrochloride]
- Kd [2, 16]: ≥ 1000 nM

SMILES: COC(=O)Nc1nc2ccc(Sc3ccccc3)cc2[nH]1 [fenbendazole]
- Kd [2, 16]: 1 to 490 nM

SMILES: N=C(N)N/N=C/c1c(Cl)cccc1Cl [guanabenz acetate]
- Kd [2, 16]: 1 to 490 nM and 2.3 nM
- Leprb expression in cultured hepatocyte (index of lowering of Helz2 action) [3]: Concentration-dependent increase in Leprb expression
- Hepatic Leprb gene expression [4]: significantly increased
- body weight gain ([5]; obese mice, 0.32 mg/kg/day oral, after day 4 from the beginning of administration, vs physiological saline): significantly reduced
- Body weight ([5]; obese mice, 0.32 mg/kg/day oral, on day 8 from the beginning of administration, maintained during administration): significant body weight reduction
- blood leptin concentration relative to non-obese mice ([6]; obese mice after administration, vs non-obese mice (2.3±0.5 ng/mL)): ≥ 10 fold
- blood leptin concentration [6, 17]: rather slightly decreased
- total food intake accumulation [6, 17]: no significant change
- daily food intake ([6]; obese mice, except on day 3 from the beginning of administration, vs physiological saline): no change in daily food intake
- blood glucose levels [7, 18]: lowered the level of hyperglycemia to that in non-obese mice
- blood insulin levels [7, 18]: mitigated hyperinsulinemia
- HOMA-IR index (insulin resistance index) [7, 17]: suppressed the HOMA-IR index
- HOMA-β index (pancreatic β-cell function) [8]: not changed
- pancreatic weight [8]: not changed
- hepatic Chol content [9, 17]: significantly reduced
- hepatic Tg content [9, 17]: significantly reduced
- fat globule area (BODIPY staining-positive area in hepatocyte) [9, 19]: significantly decreased
- fat globule cell size (size of BODIPY staining-positive cell) [9, 19]: significantly decreased
- weight of heart [10]: significantly decreased
- weight of liver [10]: significantly decreased
- blood CM-Tg concentration [11, 18]: not changed
- blood HDLc concentration [11, 18]: not changed
- blood LDLc concentration [11, 18]: significantly decreased
- blood VLDL-Tg concentration [11, 18]: not changed
- weight of kidney [12]: No change
- weight of spleen [12]: No change
- muscle weight of gastrocnemius muscle [13]: not affected
- muscle weight of plantaris muscle [13]: not affected
- muscle weight of soleus muscle [13]: not affected
- amount of intestinal membrane fat ([13]; vs physiological saline): not changed
- amount of peritesticular fat ([13]; vs physiological saline): not changed
- amount of total visceral fat ([13]; vs physiological saline): not changed

SMILES: NC(N)=N/N=C/c1c(Cl)cccc1Cl [guanabenz, 2-{[(2,6-dichlorophenyl)methylidene]amino}guanidine]
- Body weight [5, 20]: ↓
- anti-obesity action ([5]; obese mouse results): exhibits anti-obesity action without reduction of appetite
- Hyperglycemia [7, 20]: ↓
- Insulin resistance [7, 20]: ↓
- action on insulin resistance ([7]; obese mouse results): ameliorates insulin resistance
- hyperglycemia-mitigating action ([7]; obese mouse results): exhibits hyperglycemia-mitigating action
- Fatty liver [9, 20]: ↓
- anti-fatty liver action ([9]; obese mouse results): with anti-fatty liver action
- Blood HDLc [11, 20]: →
- Blood LDLc [11, 20]: ↓
- action on high LDL cholesterol ([11]; obese mouse results): exhibits reducing action for high LDL cholesterol
- Ki [14]: 7 nM
- absorptivity from a gastrointestinal tract [15]: approximately 75%
- half-life in blood [15]: 4.3 to 6.4 h
- site of metabolism [15]: mostly metabolized in the liver
- Hypertension ([1]; Table 1, *based on clinical data): ↓*

SMILES: CN(C)C(=O)C(CCN1CCC(O)(c2ccc(Cl)cc2)CC1)(c1ccccc1)c1ccccc1 [loperamide hydrochloride]
- Kd [2, 21]: 1 to 490 nM

SMILES: Cc1nc2ccccn2c(=O)c1CCN1CCC(C(=O)c2ccc(F)cc2)CC1 [pirenperone]
- Kd [2, 16]: 1 to 490 nM

SMILES: CC(NCCc1ccc(O)cc1)C(O)c1ccc(O)cc1 (centres unmarked) [ritodrine hydrochloride]
- Kd [2, 16]: 1 to 490 nM

SMILES: CCN(C)C(=O)Oc1cccc([C@H](C)N(C)C)c1 [rivastigmine tartrate]
- Kd [2, 21]: 1 to 490 nM

SMILES: CC(C)(C)NCC(O)c1ccc(O)c(CO)c1 (centres unmarked) [salbutamol]
- Kd [2, 16]: 1 to 490 nM and 220 nM

SMILES: CC(C)CC(N(C)C)C1(c2ccc(Cl)cc2)CCC1 (centres unmarked) [sibutramine hydrochloride]
- Kd [2, 21]: 1 to 490 nM

SMILES: CC1(C)[C@H](C(=O)O)N2C(=O)C[C@H]2S1(=O)=O [sulbactam]
- Kd [2, 16]: 1 to 490 nM

SMILES: C[C@@H](c1ncncc1F)[C@](O)(Cn1cncn1)c1ccc(F)cc1F [voriconazole]
- Kd [2, 16]: 1 to 490 nM
